In one series the test system is HCT116 MTAP^−/− cells. Description: Cell proliferation inhibition test (Cell-Titer Glo), HCT116 MTAP−/−. The series is classed as cell-based, human. Particulars: 6 days, read-out: HCT116 MTAP−/− Antiproliferative activity IC50. In short, it runs like this:
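Cells seeded at 400 per well, overnight, then exposed 6 days at 37 °C to compound from 10 μM top final concentration in 3-fold dilutions. Viability by ATP luminescence (Cell-Titer Glo), normalised to medium-only and DMSO controls, IC50 by curve fitting.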

The target of the next series is CYP2C9 (Homo sapiens (Human), UniProt P11712). Briefly: CYP2C9 inhibition in human liver microsomes (diclofenac substrate). The settings on record: human liver microsome. The series is classed as in vitro ADME. Here is the method: Test Example 7. Inhibitory Effect of Compound of the Present Application on Enzymatic Activity of CYP2C9, CYP2D6, and CYP3A4
CYP2C9, sequence (P11712 whole entry): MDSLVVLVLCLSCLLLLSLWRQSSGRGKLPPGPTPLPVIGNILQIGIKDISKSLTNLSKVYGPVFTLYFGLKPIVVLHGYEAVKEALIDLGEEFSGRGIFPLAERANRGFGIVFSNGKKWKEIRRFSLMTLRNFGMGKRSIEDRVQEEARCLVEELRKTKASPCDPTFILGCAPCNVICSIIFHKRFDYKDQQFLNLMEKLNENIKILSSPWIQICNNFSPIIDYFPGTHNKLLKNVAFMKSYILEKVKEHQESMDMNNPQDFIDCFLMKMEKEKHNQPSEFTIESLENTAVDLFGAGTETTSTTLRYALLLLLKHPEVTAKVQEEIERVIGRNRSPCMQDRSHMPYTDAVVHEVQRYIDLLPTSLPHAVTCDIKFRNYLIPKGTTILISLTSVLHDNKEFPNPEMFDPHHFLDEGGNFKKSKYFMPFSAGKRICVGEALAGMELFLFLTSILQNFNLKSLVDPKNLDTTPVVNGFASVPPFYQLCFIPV
The inhibition of CYP2C9, CYP2D6, and CYP3A4 activity by the compound of the present application was determined using the following method.
I. Experimental materials and instruments • 1. Human liver microsome (Corning 452117) • 2. NADPH (Solarbio 705Y021) • 3. Positive substrates diclofenac (Sigma SLBV3438), dextromethorphan (TRC 3-EDO-175-1), and midazolam (Cerilliant FE01161704) • 4. Positive inhibitors sulfaphenazole (D. Ehrenstorfer GmbH 109012), quinidine (TCI WEODL-RE), and ketoconazole (Sigma 100M1091V) • 5. AB Sciex Triple Quad 5500 liquid chromatography-mass spectrometry system
1. Preparation of 100 mM phosphate-buffered saline (PBS): 7.098 g Na2HPO4 was weighed. 500 mL pure water was added. The mixture was dissolved by sonication to give solution A. 3.400 g KH2PO4 was weighed. 250 mL pure water was added. The mixture was dissolved by sonication to give solution B. The solution A was placed in a stirrer, and the solution B was slowly added until the pH reached 7.4, so that the 100 mM PBS buffer was prepared.
2. A 10 mM NADPH solution was prepared with a 100 mM PBS buffer. A 10 mM stock solution of the compound of the present application was diluted with DMSO to give a compound working solution at a concentration of 200×(6000, 2000, 600, 200, 60, 20, and 0 μM). The positive inhibitor stock solution was diluted with DMSO to give a positive inhibitor working solution at a concentration of 200×(sulfaphenazole, 1000, 300, 100, 30, 10, 3, and 0 μM; quinidine/ketoconazole, 100, 30, 10, 3, 1, 0.3, and 0 μM). Substrate working solutions (120 μM diclofenac, 400 μM dextromethorphan, and 200 μM midazolam) at a concentration of 200× were prepared with water, acetonitrile, or acetonitrile/methanol.
3. 2 μL of 20 mg/mL liver microsome solution, 1 μL of substrate working solution, 1 μL of compound working solution, and 176 μL of PBS buffer were taken, mixed well, and placed in a 37° C. water bath for pre-incubation for 15 min. 1 μL of sulfaphenazole, quinidine, or ketoconazole working solution was added to the positive control group instead of the compound working solution. At the same time, 10 mM NADPH solution was placed together in the 37° C. water bath for pre-incubation for 15 min. After 15 min, 20 μL of NADPH was added to each well to initiate the reaction. The mixture was incubated at 37° C. for 5 min (CYP2C9), 20 min (CYP2D6), or 5 min (CYP3A4). All incubated samples were in duplicate. After incubation for the corresponding period of time, 400 μL of icy methanol containing internal standard was added to all samples to stop the reaction. The mixture was vortexed, mixed well, and centrifuged for 40 min at 4° C. at 3220 g. 100 μL of the supernatant was transferred to a feeding plate after the centrifugation was completed, and 100 μL ultrapure water was added. The mixture was well mixed for LC-MS/MS analysis.
The reduction of metabolite production in the treatment groups versus the control group was compared by the peak area ratios of the sample to the internal standard, and the IC50 value was calculated using Excel XLfit 5.3.1.3.
Percentages of remaining activity were calculated according to the following formula:
Remaining activity%=peak area ratio of metabolite to internal standardtest sample/peak area ratio of metabolite to internal standardblank solvent×100%.
Background: Liver microsomes are vesicles of endoplasmic reticulum, rich in cytochrome P450 enzymes.

Each structure is given as a SMILES string. Like-named read-outs stand apart in the source and are kept apart here.

In the case of `Cc1ncccc1-n1c(=O)c2ncn(C)c2c2ccc(C(F)(F)F)nc21` (atropisomer, axis not shown) [Compound 20, 1-methyl-5-(2-methylpyridin-3-yl)-7-(trifluoromethyl)-1,5-dihydro-4H-imidazo[4,5-c][1,8]naphthyridin-4-one], the IC50 with HCT116 MTAP^−/− cells (Homo sapiens, HCT-116, 144 h) was 76.5 nM; against CYP2C9 it was > 30000 nM.

On to `Cn1cnc2c(=O)n(-c3cccc(F)c3Cl)c3nc(C(F)(F)F)ccc3c21` (atropisomer, axis not shown) [Compound 25, 5-(2-chloro-3-fluorophenyl)-1-methyl-7-(trifluoromethyl)-1,5-dihydro-4H-imidazo[4,5-c][1,8]naphthyridin-4-one], for which the IC50 with HCT116 MTAP^−/− cells (Homo sapiens, HCT-116, 144 h) is 155 nM; against CYP2C9, > 30000 nM.

For `Cn1cnc2c(=O)n(-c3cccc(F)c3Cl)c3nc(C(F)(F)F)ccc3c21` (single isomer, unassigned) [Compound 25-P2, 5-(2-chloro-3-fluorophenyl)-1-methyl-7-(trifluoromethyl)-1,5-dihydro-4H-imidazo[4,5-c][1,8]naphthyridin-4-one], the IC50 is 70.5 nM with HCT116 MTAP^−/− cells (Homo sapiens, HCT-116, 144 h) and > 30000 nM on CYP2C9.

As to `Cn1cnc2c(=O)n(-c3cccnc3C(F)(F)F)c3nc(C(F)(F)F)ccc3c21` (single isomer, unassigned) [Compound 41-P2, 1-methyl-7-(trifluoromethyl)-5-(2-(trifluoromethyl)pyridin-3-yl)-1,5-dihydro-4H-imidazo[4,5-c][1,8]naphthyridin-4-one], the IC50 in the series on HCT116 MTAP^−/− cells (Homo sapiens, HCT-116, 144 h) was 80.1 nM; at CYP2C9, > 30000 nM.

With `Cn1cnc2c(=O)n(-c3cccnc3C3CC3)c3nc(C(F)(F)F)ccc3c21` (single isomer, unassigned) [Compound 42-P2, 5-(2-cyclopropylpyridin-3-yl)-1-methyl-7-(trifluoromethyl)-1,5-dihydro-4H-imidazo[4,5-c][1,8]naphthyridin-4-one], the IC50 in the series on HCT116 MTAP^−/− cells (Homo sapiens, HCT-116, 144 h) was 44.2 nM; on CYP2C9, > 30000 nM.

With `Cn1cnc2c(=O)n(-c3cccnc3C3CC3)c3cc(C(F)(F)F)ccc3c21` (single isomer, unassigned) [Compound 48-P2, 5-(2-cyclopropylpyridin-3-yl)-1-methyl-7-(trifluoromethyl)-1,5-dihydro-4H-imidazo[4,5-c]quinolin-4-one], the IC50 in the series on HCT116 MTAP^−/− cells (Homo sapiens, HCT-116, 144 h) is 90.9 nM; against CYP2C9 it was > 30000 nM.

In the case of `Cn1cnc2c(=O)n(-c3cccnc3C3CC3)c3cc(Cl)ccc3c21` (single isomer, unassigned) [Compound 49-P2, 7-chloro-5-(2-cyclopropylpyridin-3-yl)-1-methyl-1,5-dihydro-4H-imidazo[4,5-c]quinolin-4-one], the IC50 was 34.4 nM in the series on HCT116 MTAP^−/− cells (Homo sapiens, HCT-116, 144 h) and > 30000 nM against CYP2C9.

Regarding `O=c1c2ncoc2c2ccc(C(F)(F)F)nc2n1-c1cccnc1C1CC1` (single isomer, unassigned) [Compound 81-P2, 5-(2-cyclopropylpyridin-3-yl)-7-(trifluoromethyl)oxazolo[4,5-c][1,8]naphthyridin-4(5H)-one], the IC50 with HCT116 MTAP^−/− cells (Homo sapiens, HCT-116, 144 h) was 111 nM; against CYP2C9, > 30000 nM.

For the molecule `Cn1cnc2c(=O)n(-c3cccc(F)c3Cl)c3cc(Cl)ccc3c21` [Compound 39, 7-chloro-5-(2-chloro-3-fluorophenyl)-1-methyl-1,5-dihydro-4H-imidazo[4,5-c]quinolin-4-one], the IC50 in the series with HCT116 MTAP^−/− cells is 106 nM; on CYP2C9, > 30000 nM.

As for `Cc1ncccc1-n1c(=O)c2ncoc2c2ccc(C(F)(F)F)nc21` [Compound 40, 5-(2-methylpyridin-3-yl)-7-(trifluoromethyl)oxazolo[4,5-c][1,8]naphthyridin-4(5H)-one], the IC50 with HCT116 MTAP^−/− cells (Homo sapiens, HCT-116, 144 h) is 120 nM; against CYP2C9, > 30000 nM.

Turning to `Cc1ncccc1-n1c(=O)c2ncn(C)c2c2ccc(C(F)(F)F)cc21` [Compound 45, 1-methyl-5-(2-methylpyridin-3-yl)-7-(trifluoromethyl)-1,5-dihydro-4H-imidazo[4,5-c]quinolin-4-one], the IC50 in the series with HCT116 MTAP^−/− cells (Homo sapiens, HCT-116, 144 h) was 134 nM; at CYP2C9, > 30000 nM.

Source of the values: US20240124454A1, “TRICYCLIC COMPOUND AND USE THEREOF” (NANJING ZAIMING PHARMACEUTICAL CO., LTD., priority 2020, published 2024).
